According to patent US6489329B2, “Pharmaceutical compositions for the treatment of rhinitis” (UCB S.A., priority 1996, dated 2002):
Counter-ions that a name gives are not always drawn.

What was measured:
[1] = test system: patients suffering from perennial allergic rhinitis; assay: phase III multicenter double-blind 3-week study in perennial allergic rhinitis; format: in vivo, human; conditions: for Mean of maximal 5-symptom scores, Visit 2: control visit one week after visit 1, investigators' 4-point scale 0-3; for global evaluation by the investigators: patients in categories "Good improvement" and "No more symptoms", grouped: end of treatment (visit 3), capsule morning and evening, 5-point scale; for Mean of maximal 5-symptom scores, Visit 1: enrolment visit, investigators' 4-point scale 0-3; for PDS0 (percentage of days with a maximal symptom score equal to 0), mean / PDS1 (percentage of days with a maximal symptom score inferior or equal to 1), mean: patients' daily record card, five symptoms, 3-week study
Method: (§1) The efficacy and safety of a composition of the invention were evaluated for the treatment of rhinitis, especially perennial and seasonal rhinitis, by the following phase III multicenter, double-blind studies. The composition of the invention was compared to:
(§2) For each study, patients enrolled were ranged in three therapeutic groups and were treated as follows:
(§3) The patients' clinical evaluations made by the investigators at the end of the studies were based on a 5-point scale (0=worsening; 1=no change; 2=slight improvement; 3=good improvement; 4=no more symptoms). The Cochran-Mantel-Haenszel test was used to compare the frequency distribution of the three groups, and for specific comparisons.
(§4) At home, patients had to fill a daily record card where the five following symptoms were evaluated: sneezing, runny nose, blocked nose, itchy nose and itchy eyes. The symptoms scores were based on a 4-point scale (0: absent; 1: mild; 2: moderate; 3: severe). […] Global comparisons were made using the Kruskal-Wallis test and specific comparisons were made with the Wilcoxon rank sum test.
(§5) Three visits were planned during the study: enrolment visit (Visit 1), control visit (Visit 2) one week after visit 1 and final visit (Visit 3). At visits 1 and 2, investigators evaluated the specific symptoms of allergic rhinitis (sneezing, rhinorrhea, nasal obstruction, nasal pruritus and ocular pruritus) using the 4-point scale (0: absent; 1: mild; 2: moderate; 3: severe). The rhinitis severity was evaluated by taking into account the maximal score of the five symptoms. The three groups were compared using the Cochran-Mantel-Haenszel test based on ranks.
(§6) The patients were asked about possible adverse events at each control visit. In each treatment group, adverse events were counted and grouped in classes. The frequency distributions of these adverse effect numbers were compared using the Cochran-Mantel-Haenszel test.
A total of 554 patients were enrolled in this 3-week study. These patients ranged in age from 12 to 67 years old. They had to suffer from perennial allergic rhinitis diagnosed at least one year prior to the study, with radio allergosorbent test (RAST) or prick-test positive to perennial allergens including dust, mites and/or animal danders. On enrolment day, patients had to have the following symptoms: nasal obstruction, sneezing and rhinorrhea.

[2] = test system: patients suffering from pollen-associated allergic rhinitis; assay: phase III multicenter double-blind 2-week study in pollen-associated (seasonal) allergic rhinitis; format: in vivo, human; conditions: for Incidence of asthenia / Incidence of headache / Incidence of insomnia / Incidence of somnolence / proportion of patients with at least one adverse effect / PDS0 (percentage of days with a maximal symptom score equal to 0), mean / PDS1 (percentage of days with a maximal symptom score inferior or equal to 1), mean: 2-week study; for Mean of maximal 5-symptom scores, Visit 2: control visit one week after visit 1, investigators' 4-point scale 0-3; for global evaluation: patients in categories "Good improvement" and "No more symptoms", grouped: end of 2-week study, capsule morning and evening, 5-point scale; for Mean of maximal 5-symptom scores, Visit 1: enrolment visit, investigators' 4-point scale 0-3; for PDS0 (percentage of days with a maximal symptom score equal to 0), mean / PDS1 (percentage of days with a maximal symptom score inferior or equal to 1), mean: maximal score of five symptoms
Method: as §1, §2, §3, §4, §5, §6
A total of 687 patients enrolled in this 2-week study, their ages ranging from 12 to 67 years. They had to be suffering from pollen-associated allergic rhinitis, with a prick-test or a RAST positive to pollen. […] On enrolment day, the patients had to be experiencing nasal obstruction and at least two of the four following symptoms: sneezing, rhinorrhea, nasal pruritus, ocular pruritus.

O=C(O)COCCN1CCN(C(c2ccccc2)c2ccc(Cl)cc2)CC1 (racemic) [Cetirizine, 2-[2-[4-[(4-chlorophenyl)phenylmethyl]-1-piperazinyl]ethoxy]-acetic dihydrochloride]
sedation, frequency of adverse event ([1]; comparison between the three groups): more frequent
Mean of maximal 5-symptom scores, Visit 2 [1]: 1.82
global evaluation by the investigators: patients in categories "Good improvement" and "No more symptoms", grouped [1]: 46%
Mean of maximal 5-symptom scores, Visit 1 [1]: 2.66
PDS0 (percentage of days with a maximal symptom score equal to 0), mean [1]: 6.60%
PDS1 (percentage of days with a maximal symptom score inferior or equal to 1), mean [1]: 43.26%
Incidence of asthenia [2]: 4%
Incidence of headache [2]: 4%
Incidence of insomnia [2]: 0%
Incidence of somnolence [2]: 6%
proportion of patients with at least one adverse effect [2]: 23%
Mean of maximal 5-symptom scores, Visit 2 [2]: 1.76
global evaluation: patients in categories "Good improvement" and "No more symptoms", grouped [2]: 56%
Mean of maximal 5-symptom scores, Visit 1 [2]: 2.77
PDS0 (percentage of days with a maximal symptom score equal to 0), mean [2]: 6.41%
PDS1 (percentage of days with a maximal symptom score inferior or equal to 1), mean [2]: 39.81%

CN[C@@H](C)[C@@H](O)c1ccccc1.Cl [Pseudoephedrine, (1S,2S)2-methylamino-1-phenylpropan-1-ol hydrochloride]
Mean of maximal 5-symptom scores, Visit 2 [1]: 1.81
global evaluation by the investigators: patients in categories "Good improvement" and "No more symptoms", grouped [1]: 48%
Mean of maximal 5-symptom scores, Visit 1 [1]: 2.72
PDS0 (percentage of days with a maximal symptom score equal to 0), mean [1]: 6.97%
PDS1 (percentage of days with a maximal symptom score inferior or equal to 1), mean [1]: 41.57%
Incidence of asthenia [2]: 1%
Incidence of headache [2]: 7%
Incidence of insomnia [2]: 8.5%
Incidence of somnolence [2]: 3%
proportion of patients with at least one adverse effect [2]: 30%
Mean of maximal 5-symptom scores, Visit 2 [2]: 1.82
global evaluation: patients in categories "Good improvement" and "No more symptoms", grouped [2]: 58%
Mean of maximal 5-symptom scores, Visit 1 [2]: 2.78
PDS0 (percentage of days with a maximal symptom score equal to 0), mean [2]: 5.44%
PDS1 (percentage of days with a maximal symptom score inferior or equal to 1), mean [2]: 37.21%
